Laboratory results as given in US20240025862A1, “SUBSTITUTED N-PHENYLURACILS AND SALTS THEREOF, AND USE THEREOF AS HERBICIDAL ACTIVE SUBSTANCES” (Bayer Aktiengesellschaft, priority 2020, published 2024).
Values belong to the compound of their own block, whether it stands above or below them.

How the values were obtained:
Type in all cases: in vivo
[1] = tested on: Triticum aestivum (TRZAS); experiment: Post-emergence crop plant compatibility, greenhouse pot test; details: vs untreated controls
In short: (§1)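 Greenhouse-grown crop plants sprayed post-emergence at the one-leaf stage with WP or EC formulations plus 0.5% additive, at 600 l/ha water. Damage rated visually after about 3 weeks versus untreated controls (0% = like control, 100% = dead); suffixes a/b/c denote different dosages.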

Glycine max (GLXMA) = experiment: as above
In short: as §1

Zea mays (ZEAMX) = experiment: as above; details: vs untreated controls
In short: as §1

[2] = tested on: Polygonum convolvulus (POLCO); experiment: Post-emergence herbicidal action, greenhouse pot test
In short: (§2)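 Greenhouse-grown weeds in sandy loam were sprayed post-emergence at the one-leaf stage, 2–3 weeks after sowing. Compounds were formulated as WP or EC in water with 0.5% additive at 600 l/ha, at rates of 20 g/ha or less. Visual rating after about 3 weeks used a scale from 0% (like untreated control) to 100% (plants dead).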

Veronica persica (VERPE) = experiment: as above
In short: as §2

[3] = tested on: Amaranthus retroflexus (AMARE); experiment: as above; details: rated visually after about 3 weeks vs untreated controls, 100% = plants have died
In short: as §2

Viola tricolor (VIOTR) = experiment: as above
In short: as §2

[4] = tested on: Abutilon theophrasti (ABUTH); experiment: as above; details: rated visually after about 3 weeks vs untreated controls, 100% = plants have died
In short: as §2

Stellaria media (STEME) = experiment: as above
In short: as §2

[5] = tested on: Pharbitis purpurea (PHBPU); experiment: as above
In short: as §2

Setaria viridis (SETVI) = experiment: Post-emergence herbicidal action, greenhouse pot test (also comparative test C)
In short: (§3)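 Greenhouse pot plants in sandy loam were sprayed post-emergence at the one-leaf stage (2–3 weeks after sowing) with WP or EC formulations plus 0.5% additive at 600 l/ha water. Activity was rated visually after about 3 weeks versus untreated controls (100% = dead, 0% = like control); rates were 20 g/ha or less, and 5 g/ha or less in the comparative test.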

[6] = tested on: Echinochloa crus-galli (ECHCG); experiment: as above
In short: as §3

[7] = tested on: Alopecurus myosuroides (ALOMY); experiment: as above; details: rated visually after about 3 weeks vs untreated controls, 100% = plants have died
In short: as §3

[8] = tested on: Matricaria inodora (MATIN); experiment: as above
In short: as §3

Oryza sativa (ORYSA) = experiment: Post-emergence crop plant compatibility, greenhouse pot test (also comparative test C); details: for Post-emergence action against ORYSA (crop plant compatibility): vs untreated controls
In short: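 Rice and other crops sprayed post-emergence at one-leaf stage (2–3 weeks after sowing) with WP or EC formulations plus 0.5% additive at 600 l/ha water. Visual rating about 3 weeks later versus untreated controls (100% = dead, 0% = like control); suffixes a–c denote different doses.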

Avena fatua (AVEFA) = experiment: Post-emergence herbicidal action, greenhouse pot test; details: rated visually after about 3 weeks vs untreated controls, 100% = plants have died
In short: as §2

Post-emergence action against TRZAS (crop plant compatibility) ([1]; 1.25 g/ha): 20%
Post-emergence action against TRZAS (crop plant compatibility) ([1]; 5 g/ha): 20%
Post-emergence action against GLXMA in % (Glycine max (GLXMA); 1.25 g/ha): 0%
Post-emergence action against GLXMA in % (Glycine max (GLXMA); 5 g/ha): 10%
Post-emergence action against GLXMA in % (Glycine max (GLXMA); 20 g/ha): 20%
Post-emergence action against ZEAMX (crop plant compatibility) (Zea mays (ZEAMX); 1.25 g/ha): 10%
Post-emergence action against ZEAMX (crop plant compatibility) (Zea mays (ZEAMX); 5 g/ha): 10%
Post-emergence action against ZEAMX (crop plant compatibility) (Zea mays (ZEAMX); 20 g/ha): 20%
Post-emergence action against ORYSA (crop plant compatibility) (Oryza sativa (ORYSA); 1.25 g/ha): 10%
Post-emergence action against ORYSA (crop plant compatibility) (Oryza sativa (ORYSA); 5 g/ha): 10%
Structure (SMILES): COCCOC(=O)C(C)Oc1ccccc1Sc1cc(-n2c(=O)cc(C(F)(F)F)n(C)c2=O)c(F)cc1Cl (racemic) [I.2-1, 2-Methoxyethyl (2RS)-2-[2-({2-chloro-4-fluoro-5-[3-methyl-2,6-dioxo-4-(trifluoromethyl)-3,6-dihydropyrimidin-1(2H)-yl]phenyl}sulfanyl)phenoxy]propanoate]
pest or weed control at 5 g/ha ([2]; Fallopia convolvulus, 504 h, dosage 5 g/ha, read-out: Post-emergence action against POLCO in %): 80%
pest or weed control at 20 g/ha ([2]; Fallopia convolvulus, 504 h, dosage 20 g/ha, read-out: Post-emergence action against POLCO in %): 100%
pest or weed control at 1.25 g/ha (Veronica persica (VERPE); Veronica persica, 504 h, 1.25 g/ha, read-out: Post-emergence action against VERPE): 90%
pest or weed control at 5 g/ha (Veronica persica (VERPE); Veronica persica, 504 h, 5 g/ha, read-out: Post-emergence action against VERPE): 100%
pest or weed control at 20 g/ha (Veronica persica (VERPE); Veronica persica, 504 h, 20 g/ha, read-out: Post-emergence action against VERPE): 100%
pest or weed control at 1.25 g/ha ([3]; Amaranthus retroflexus, 504 h, 1.25 g/ha, read-out: Post-emergence action at 1.25 g/ha against AMARE in %): 100%
pest or weed control at 20 g/ha ([3]; Amaranthus retroflexus, 504 h, 20 g/ha, read-out: Post-emergence action at 20 g/ha against AMARE in %): 100%
pest or weed control at 1.25 g/ha (Viola tricolor (VIOTR); Viola tricolor, 504 h, 1.25 g/ha, read-out: Post-emergence action against VIOTR): 100%
pest or weed control at 5 g/ha (Viola tricolor (VIOTR); Viola tricolor, 504 h, 5 g/ha, read-out: Post-emergence action against VIOTR): 100%
pest or weed control at 20 g/ha (Viola tricolor (VIOTR); Viola tricolor, 504 h, 20 g/ha, read-out: Post-emergence action against VIOTR): 100%
pest or weed control at 5 g/ha ([4]; Abutilon theophrasti, 504 h, 5 g/ha, read-out: Post-emergence action at 5 g/ha against ABUTH in %): 100%
pest or weed control at 20 g/ha ([4]; Abutilon theophrasti, 504 h, 20 g/ha, read-out: Post-emergence action at 20 g/ha against ABUTH in %): 100%
Post-emergence action against STEME (Stellaria media (STEME); 1.25 g/ha): 80%
Post-emergence action against STEME (Stellaria media (STEME); 5 g/ha): 100%
Post-emergence action against STEME (Stellaria media (STEME); 20 g/ha): 100%
pest or weed control at 1.25 g/ha ([5]; Ipomoea purpurea, 504 h, dosage 1.25 g/ha, read-out: Post-emergence action against PHBPU in %): 100%
pest or weed control at 5 g/ha ([5]; Ipomoea purpurea, 504 h, dosage 5 g/ha, read-out: Post-emergence action against PHBPU in %): 100%
pest or weed control at 20 g/ha ([5]; Ipomoea purpurea, 504 h, dosage 20 g/ha, read-out: Post-emergence action against PHBPU in %): 100%
pest or weed control at 20 g/ha (Setaria viridis (SETVI); Setaria viridis, 504 h, 20 g/ha, read-out: Post-emergence action against SETVI): 100%
pest or weed control at 1.25 g/ha (Setaria viridis (SETVI); Setaria viridis, 504 h, dosage 1.25 g/ha, read-out: Post-emergence action against SETVI in %): 100%
pest or weed control at 5 g/ha (Setaria viridis (SETVI); Setaria viridis, 504 h, dosage 5 g/ha, read-out: Post-emergence action against SETVI in %): 100%
pest or weed control at 20 g/ha ([6]; Echinochloa crus-galli, 504 h, dosage 20 g/ha, read-out: Post-emergence action against ECHCG in %): 100%
pest or weed control at 20 g/ha ([7]; Alopecurus myosuroides, 504 h, 20 g/ha, read-out: Post-emergence action at 20 g/ha against ALOMY in %): 80%
pest or weed control at 5 g/ha ([8]; Tripleurospermum inodorum, 504 h, dosage 5 g/ha, read-out: Post-emergence action against MATIN in %): 80%
pest or weed control at 20 g/ha ([8]; Tripleurospermum inodorum, 504 h, dosage 20 g/ha, read-out: Post-emergence action against MATIN in %): 100%

Post-emergence action against TRZAS (crop plant compatibility) ([1]; 1.25 g/ha): 0%
Post-emergence action against GLXMA in % (Glycine max (GLXMA); 1.25 g/ha): 0%
Post-emergence action against ZEAMX (crop plant compatibility) (Zea mays (ZEAMX); 1.25 g/ha): 0%
Post-emergence action against ZEAMX (crop plant compatibility) (Zea mays (ZEAMX); 5 g/ha): 0%
Post-emergence action against ZEAMX (crop plant compatibility) (Zea mays (ZEAMX); 20 g/ha): 20%
Post-emergence action against ORYSA (crop plant compatibility) (Oryza sativa (ORYSA); 1.25 g/ha): 0%
Post-emergence action against ORYSA (crop plant compatibility) (Oryza sativa (ORYSA); 5 g/ha): 0%
Post-emergence action against ORYSA in % (Oryza sativa (ORYSA); 20 g/ha, crop plant compatibility): 0%
Structure (SMILES): Cn1c(C(F)(F)F)cc(=O)n(-c2cc(Oc3ccccc3OCC(=O)OCc3ccccn3)c(C#N)cc2F)c1=O [I.9-276]
Post-emergence action against POLCO in % ([2]; dosage 20 g/ha): 100%
Post-emergence action against VERPE (Veronica persica (VERPE); 1.25 g/ha): 80%
Post-emergence action against VERPE (Veronica persica (VERPE); 5 g/ha): 100%
Post-emergence action against VERPE (Veronica persica (VERPE); 20 g/ha): 100%
Post-emergence action at 1.25 g/ha against AMARE in % ([3]; 1.25 g/ha): 100%
Post-emergence action at 5 g/ha against AMARE in % ([3]; 5 g/ha): 100%
Post-emergence action at 20 g/ha against AMARE in % ([3]; 20 g/ha): 100%
Post-emergence action against VIOTR (Viola tricolor (VIOTR); 1.25 g/ha): 100%
Post-emergence action against VIOTR (Viola tricolor (VIOTR); 5 g/ha): 100%
Post-emergence action against VIOTR (Viola tricolor (VIOTR); 20 g/ha): 100%
Post-emergence action at 1.25 g/ha against ABUTH in % ([4]; 1.25 g/ha): 100%
Post-emergence action at 5 g/ha against ABUTH in % ([4]; 5 g/ha): 100%
Post-emergence action at 20 g/ha against ABUTH in % ([4]; 20 g/ha): 100%
Post-emergence action at 5 g/ha against AVEFA in % (Avena fatua (AVEFA); 5 g/ha): 80%
Post-emergence action at 20 g/ha against AVEFA in % (Avena fatua (AVEFA); 20 g/ha): 90%
Post-emergence action against PHBPU in % ([5]; dosage 1.25 g/ha): 100%
Post-emergence action against PHBPU in % ([5]; dosage 5 g/ha): 100%
Post-emergence action against PHBPU in % ([5]; dosage 20 g/ha): 100%
Post-emergence action against SETVI (Setaria viridis (SETVI); 20 g/ha): 100%
Post-emergence action against SETVI in % (Setaria viridis (SETVI); dosage 1.25 g/ha): 100%
Post-emergence action against SETVI in % (Setaria viridis (SETVI); dosage 5 g/ha): 100%
Post-emergence action against ECHCG in % ([6]; dosage 5 g/ha): 100%
Post-emergence action against ECHCG in % ([6]; dosage 20 g/ha): 100%
Post-emergence action at 5 g/ha against ALOMY in % ([7]; 5 g/ha): 100%
Post-emergence action at 20 g/ha against ALOMY in % ([7]; 20 g/ha): 100%
Post-emergence action against MATIN in % ([8]; dosage 5 g/ha): 100%
Post-emergence action against MATIN in % ([8]; dosage 20 g/ha): 100%
